Patent publication US20040176349A1, “Antibacterial composition” (priority 2001, published 2004)

Legend:
E. faecalis ATCC 10541 = assay: Checkerboard microdilution MIC with PFOB, Table 2; type: cell-based
Description: The aim of the study was to detect any synergy between PFOB and the other antibiotics. For the purposes of the study, synergy was defined in accordance with the FIC (fractional inhibitory concentration) index, as disclosed by Lorian (1991, In “Antibiotics in Laboratory Medicine” 3rd edition, Eds. Williams & Wilkins; esp. p 434-443).

E. faecalis 5659 (vanA) = assay: Checkerboard microdilution MIC with PFOB, Table 2; type: cell-based
Description: (§1) The aim of the study was to detect any synergy between PFOB and the other antibiotics. For the purposes of the study, synergy was defined in accordance with the FIC (fractional inhibitory concentration) index, as disclosed by Lorian (1991, In “Antibiotics in Laboratory Medicine” 3rd edition, Eds. Williams & Wilkins; esp. p 434-443). In essence, if the combination of test compounds gives at least a 4-fold reduction in the FIC value for each compound, then a synergy may be considered to exist (i.e. FIC of the combination <0.5=synergy; FIC 0.5-2.0=“indifference”; and FIC >2=antagonism).
(§2) In Table 2, results in the checkerboard indicating synergy are hatched, and specific optimum synergistic combinations are boxed.

E.faecalis 78097 (van B) = assay: Checkerboard microdilution MIC with PFOB, Table 2; type: cell-based
Description: as §1, §2

E. faecalis ATCC 29212 = assay: Checkerboard microdilution MIC with PFOB, Table 2; type: cell-based
Description: as §1, §2

enterococci = assay: Checkerboard study, synergy summary of Example 2; type: cell-based, Enterococcus; settings: in words
Description: as §1

[1] = Enterococcus faecalis, read-out: MIC (alone) of Partner

Structure (SMILES): CN[C@H](CC(C)C)C(=O)N[C@H]1C(=O)N[C@@H](CC(N)=O)C(=O)N[C@H]2C(=O)N[C@H]3C(=O)N[C@H](C(=O)N[C@H](C(=O)O)c4cc(O)cc(O)c4-c4cc3ccc4O)[C@H](O)c3ccc(c(Cl)c3)Oc3cc2cc(c3O[C@@H]2O[C@H](CO)[C@@H](O)[C@H](O)[C@H]2O[C@H]2C[C@](C)(N)[C@H](O)[C@H](C)O2)Oc2ccc(cc2Cl)[C@H]1O [Vancomycin, vancomycin]
- MIC of partner antibiotic in the presence of PFOB at 0.5 mg/L (E. faecalis ATCC 10541; E. faecalis ATCC 10541, PFOB 0.5 mg/L): 2 µg/mL
- MIC of partner antibiotic in the presence of PFOB at 1 mg/L (E. faecalis ATCC 10541; E. faecalis ATCC 10541, PFOB 1 mg/L): 2 µg/mL
- MIC of partner antibiotic in the presence of PFOB at 2 mg/L (E. faecalis ATCC 10541; E. faecalis ATCC 10541, PFOB 2 mg/L): 2 µg/mL
- MIC of partner antibiotic in the presence of PFOB at 4 mg/L (E. faecalis ATCC 10541; E. faecalis ATCC 10541, PFOB 4 mg/L): 2 µg/mL
- MIC of partner antibiotic in the presence of PFOB at 8 mg/L (E. faecalis ATCC 10541; E. faecalis ATCC 10541, PFOB 8 mg/L): 2 µg/mL
- MIC of partner antibiotic in the presence of PFOB at 16 mg/L (E. faecalis ATCC 10541; E. faecalis ATCC 10541, PFOB 16 mg/L): 1 µg/mL
- MIC of partner antibiotic in the presence of PFOB at 32 mg/L (E. faecalis ATCC 10541; E. faecalis ATCC 10541, PFOB 32 mg/L): 1 µg/mL
- MIC (E. faecalis ATCC 10541; Enterococcus faecalis, ATCC10541, read-out: MIC (alone) of Partner): 4 µg/mL
- MIC of partner antibiotic in the presence of PFOB at 0.5 mg/L (E. faecalis 5659 (vanA); E. faecalis 5659 (vanA), PFOB 0.5 mg/L): >64 µg/mL
- MIC of partner antibiotic in the presence of PFOB at 1 mg/L (E. faecalis 5659 (vanA); E. faecalis 5659 (vanA), PFOB 1 mg/L): >64 µg/mL
- MIC of partner antibiotic in the presence of PFOB at 2 mg/L (E. faecalis 5659 (vanA); E. faecalis 5659 (vanA), PFOB 2 mg/L): >64 µg/mL
- MIC of partner antibiotic in the presence of PFOB at 4 mg/L (E. faecalis 5659 (vanA); E. faecalis 5659 (vanA), PFOB 4 mg/L): >64 µg/mL
- MIC of partner antibiotic in the presence of PFOB at 8 mg/L (E. faecalis 5659 (vanA); E. faecalis 5659 (vanA), PFOB 8 mg/L): >64 µg/mL
- MIC of partner antibiotic in the presence of PFOB at 16 mg/L (E. faecalis 5659 (vanA); E. faecalis 5659 (vanA), PFOB 16 mg/L): >64 µg/mL
- MIC of partner antibiotic in the presence of PFOB at 32 mg/L (E. faecalis 5659 (vanA); E. faecalis 5659 (vanA), PFOB 32 mg/L): >64 µg/mL
- MIC (E. faecalis 5659 (vanA); [1]): > 64 µg/mL
- Synergy FIC (E.faecalis 78097 (van B); E.faecalis 78097 (van B), FIC index of PFOB + labelled partner, <0.5 = synergy): 0.375
- MIC of partner antibiotic in the presence of PFOB at 0.5 mg/L (E.faecalis 78097 (van B); E.faecalis 78097 (van B), PFOB 0.5 mg/L): 64 µg/mL
- MIC of partner antibiotic in the presence of PFOB at 1 mg/L (E.faecalis 78097 (van B); E.faecalis 78097 (van B), PFOB 1 mg/L): 64 µg/mL
- MIC of partner antibiotic in the presence of PFOB at 2 mg/L (E.faecalis 78097 (van B); E.faecalis 78097 (van B), PFOB 2 mg/L): 64 µg/mL
- MIC of partner antibiotic in the presence of PFOB at 4 mg/L (E.faecalis 78097 (van B); E.faecalis 78097 (van B), PFOB 4 mg/L): 64 µg/mL
- MIC of partner antibiotic in the presence of PFOB at 8 mg/L (E.faecalis 78097 (van B); E.faecalis 78097 (van B), PFOB 8 mg/L): 64 µg/mL
- MIC of partner antibiotic in the presence of PFOB at 16 mg/L (E.faecalis 78097 (van B); E.faecalis 78097 (van B), PFOB 16 mg/L): 32 µg/mL
- MIC of partner antibiotic in the presence of PFOB at 32 mg/L (E.faecalis 78097 (van B); E.faecalis 78097 (van B), PFOB 32 mg/L): 16 µg/mL
- MIC of PFOB & Partner: Partner concentration (E.faecalis 78097 (van B); E.faecalis 78097 (van B), optimum synergistic combination with PFOB, second figure (partner)): 32 µg/mL
- MIC (E.faecalis 78097 (van B); [1]): > 64 µg/mL
- Synergy FIC (E. faecalis ATCC 29212; E. faecalis ATCC 29212, FIC index of PFOB + labelled partner, <0.5 = synergy): 0.31
- MIC of partner antibiotic in the presence of PFOB at 0.5 mg/L (E. faecalis ATCC 29212; E. faecalis ATCC 29212, PFOB 0.5 mg/L): 4 µg/mL
- MIC of partner antibiotic in the presence of PFOB at 1 mg/L (E. faecalis ATCC 29212; E. faecalis ATCC 29212, PFOB 1 mg/L): 2 µg/mL
- MIC of partner antibiotic in the presence of PFOB at 2 mg/L (E. faecalis ATCC 29212; E. faecalis ATCC 29212, PFOB 2 mg/L): 2 µg/mL
- MIC of partner antibiotic in the presence of PFOB at 4 mg/L (E. faecalis ATCC 29212; E. faecalis ATCC 29212, PFOB 4 mg/L): 2 µg/mL
- MIC of partner antibiotic in the presence of PFOB at 8 mg/L (E. faecalis ATCC 29212; E. faecalis ATCC 29212, PFOB 8 mg/L): 2 µg/mL
- MIC of partner antibiotic in the presence of PFOB at 16 mg/L (E. faecalis ATCC 29212; E. faecalis ATCC 29212, PFOB 16 mg/L): 1 µg/mL
- MIC of partner antibiotic in the presence of PFOB at 32 mg/L (E. faecalis ATCC 29212; E. faecalis ATCC 29212, PFOB 32 mg/L): 1 µg/mL
- MIC of PFOB & Partner: Partner concentration (E. faecalis ATCC 29212; E. faecalis ATCC 29212, optimum synergistic combination with PFOB, second figure (partner)): 1 µg/mL
- MIC (E. faecalis ATCC 29212; Enterococcus faecalis, ATCC29212, read-out: MIC (alone) of Partner): 4 µg/mL
- synergy with PFOB (enterococci): less marked, but still significant, synergy
